Assay results from patent publication US9682928B2 (NeuroPro Therapeutics, Inc., priority 2009, dated 2017).
Like-named read-outs stand apart in the source and are kept apart here.

How the values were obtained:
rats [1] = assay: Fear potentiated startle (FPS) test in rats; type: in vivo, rat; conditions: i.v.; furosemide 100 mg/kg, bumetanide 70 mg/kg
Experimental: FPS is a commonly used assessment of therapeutic value of anxiolytic compounds in the rat. Rats received a 30 min period of habituation to the FPS apparatus. 24-hr later baseline startle amplitudes were collected. The rats will be divided into two matched groups based on baseline startle amplitudes. Following baseline startle amplitude collection 20 light/shock pairings were delivered on 2 sessions over 2 consecutive days (i.e., 10 light/shock pairings per day). On the final day, one group of rats received an injection (i.v.) of a bumetanide analog and the other group received vehicle only. Immediately following injections, startle amplitudes were assessed during startle alone trials and startle plus fear (light followed by startle) trials. Fear potentiated startle (light+startle amplitudes minus startle alone amplitudes) was compared between the treatment groups.
Animals were trained and tested in four identical stabilimeter devices (Med-Associates). Briefly, each rat was placed in a small Plexiglas cylinder. The floor of each stabilimeter consists of four 6-mm-diameter stainless steel bars spaced 18 mm apart through which shock can be delivered. Cylinder movements result in displacement of an accelerometer where the resultant voltage is proportional to the velocity of the cage displacement. Startle amplitude is defined as the maximum accelerometer voltage that occurs during the first 0.25 sec after the startle stimulus is delivered. The analog output of the accelerometer is amplified, digitized on a scale of 0-4096 units and stored on a microcomputer. Each stabilimeter is enclosed in a ventilated, light-, and sound-attenuating box. All sound level measurements were made with a Precision Sound Level Meter. The noise of a ventilating fan attached to a sidewall of each wooden box produces an overall background noise level of 64 dB. The startle stimulus is a 50 ms burst of white noise (5 ms rise-decay time) generated by a white noise generator. The visual conditioned stimulus used was illumination of a light bulb adjacent to the white noise source. The unconditioned stimulus was a 0.6 mA foot shock with duration of 0.5 sec, generated by four constant-current shockers located outside the chamber. The presentation and sequencing of all stimuli were under the control of the microcomputer.
FPS procedures consisted of 5 days of testing; during days 1 and 2 baseline startle responses were collected, days 3 and 4 light/shock pairings were delivered, day 5-testing for fear potentiated startle was conducted.
Matching. On the first two days all rats were placed in the Plexiglas cylinders and 3 min later presented with 30 startle stimuli at a 30 sec interstimulus interval. An intensity of 105 dB was used. […]

rats [2] = assay: Contextual fear conditioning in rats; type: in vivo, rat; conditions: I.V.; furosemide 100 mg/kg, bumetanide 50 mg/kg
Experimental: Contextual fear conditioning involves pairing an aversive event, in this case moderate foot shock, with a distinctive environment. The strength of the fear memory is assessed using freezing, a species-typical defensive reaction in rats, marked by complete immobility, except for breathing. […] However, if they are allowed to explore the distinctive environment sometime before the immediate shock, they show intense anxiety and fear when placed back into the same environment. By procedurally dividing contextual fear conditioning into two phases, the effects of treatments on memory for the context (specifically a hippocampus based process) from learning the association between context and shock or experiencing the aversiveness of the shock (which depend upon emotional response circuitry including amygdala) were separately studied. […] The experiment employed 24 rats. […] Each rat was again placed into the same environment for 8 min during which time freezing was measured, as an index of Pavlovian conditioned fear. […] Measurement of freezing was accomplished through an overhead video camera connected to the microcomputer and was automatically scored using a specialty piece of software, FreezeFrame (OER Inc., Reston, Va.) Total freezing time was analyzed in a one-way analysis of variance (ANOVA) test, with drug dose as the […] factor.

Sprague-Dawley rats = assay: Epileptiform activity induced by i.v. kainic acid in urethane-anesthetized rats; type: in vivo, rat; conditions: intravenous, cumulative dose 40-60 mg/kg
Experimental: Body temperature was monitored using a rectal temperature probe and maintained at 35-37° C. with a heating pad; heart rate (EKG) was continuously monitored. The jugular vein was cannulated on one side for intravenous drug administration. Rats were placed in a Kopf stereotaxic device (with the top of the skull level), and a bipolar stainless-steel microelectrode insulated to 0.5 mm of the tip was inserted to a depth of 0.5-1.2 mm from the cortical surface to record electroencephalographic (EEG) activity in the fronto-parietal cortex. In some experiments, a 2M NaCl-containing pipette was lowered to a depth of 2.5-3.0 mm to record hippocampal EEG. Data were stored on VHS videotape and analyzed off-line.
Following the surgical preparation and electrode placement, animals were allowed to recover for 30 minutes before the experiments were initiated with an injection of kainic acid (10-12 mg/kg i.v.). […] Experiments were terminated with the intravenous administration of urethane. Animal care was in accordance with NIH guidelines and approved by the University of Washington Animal Care Committee.

human subjects = conditions: cited from earlier work
primate = assay: Acute primate seizure models; conditions: in vivo
Excerpt: FIG. 13 depicts epileptiform spikes and bursts generated using software for the automatic quantification epileptiform activity. FIG. 13A depicts after-discharge activity that was elicited by 4 seconds of electrical stimulation to primate sensory cortex. The software developed by Haglund and Hochman (2007) finds the envelope around a burst of spikes and calculates the duration of the burst, the number of spikes within the burst, and the average spike amplitude of all spikes comprising the burst.
FIG. 13B depicts a typical spike generated by an acute bicuculline focus in primate motor cortex. The bicuculline model generates epileptiform activity that is similar to spontaneous interictal spiking in human subjects. Analysis of the data by the software identifies the time of occurrence of each spike and its peak-to-peak amplitude. This software can automatically process entire data sets consisting of hours of recorded data from multiple traces and generate an output of the data. Statistical analysis of data sets from multiple experiments can then be used to analyze the effects of various treatments (e.g., compounds that suppress epliptiform activity). See Haglund and Hochman (2007) “Imaging of Intrinsic Optical Signals in Primate Cortex during Epileptiform Activity.” Epilepsia 48(Suppl. 4): 65-74; See also Haglund and Hochman (Feb. 23, 2005) J. Neurophysiol. 94: 907-918.

Experimental for rat hippocampal slices: Sprague-Dawley rats (males and females; 25-35 days old) were decapitated, the top of the skull was rapidly removed, and the brain chilled with ice-cold oxygenated slicing medium. […] A hemisphere of brain containing hippocampus was blocked and glued (cyanoacrylic adhesive) to the stage of a Vibroslicer (Frederick Haer, Brunsick, Me.). […] In the recording chamber, the slices were perfused with oxygenated recording medium at 34-35° C. […] In most slice experiments, simultaneous extracellular field electrode recordings were obtained from CA1 and CA3 areas. A bipolar tungsten stimulating electrode was placed on the Schaffer collaterals to evoke synaptically-driven field responses in CA1. Stimuli consisted of 100-300 μsec duration pulses at an intensity of four times the population-spike threshold. After discharges were evoked by a 2 second train of such stimuli delivered at 60 Hz. […] The tissue was allowed to recover for 10 minutes between stimulation trials. In each experiment, the initial response of CA1 to synaptic input was first tested by recording the field potential evoked by a single stimulus pulse. […] Rat hippocampal slices, prepared as described above, were perfused with a high-K^+ solution until extended periods of spontaneous interictal-like bursting were recorded simultaneously in CA3 (top traces) and CA1 (lower traces) pyramidal cell regions (FIGS. 18A and 18B). […] Hippocampal slices were prepared from Sprague-Dawley adult rats as described previously. Transverse hippocampal slices 100 μm thick were cut with a vibrating cutter. Slices typically contained the entire hippocampus and subiculum. After cutting, slices were stored in an oxygenated holding chamber at room temperature for at least one hour before recording. […] In some experiments, normal or low-chloride medium was used containing bicuculline.

NS(=O)(=O)c1cc(C(=O)O)c(NCc2ccco2)cc1Cl [Furosemide]
Difference score on the test day vs vehicle alone (rats [1]): statistically significantly lower difference score | Difference score one week after treatment vs vehicle alone (rats [1]): higher difference score | Minimum concentration required to block both the after discharges and optical changes (rat hippocampal slices): 1.25 mM | Latency to block of bursting (rat hippocampal slices; 0-Ca2+ experiments, 5 mM furosemide): 15 to 20 min | Stimulation-evoked after discharge activity and optical changes (rat hippocampal slices; 2.5 mM furosemide, 20 minutes of perfusion): blocked | Spontaneous bursts in high-K+ (10 mM) medium (rat hippocampal slices; 2.5 mM furosemide, after 45 minutes of perfusion): blocked in a reversible manner | Latency to block of bursting (rat hippocampal slices; all other protocols, 2.5 mM furosemide): 20 to 60 min | Anticonvulsant resistant bursts after 3 hours of 0-Mg medium (rat hippocampal slices; one hour after the addition of furosemide): blocked | Freezing vs vehicle alone (rats [2]): significantly less freezing | Kainic acid-evoked seizure activity (electrical status epilepticus) (Sprague-Dawley rats): blocked seizure activity | Latency to block of seizure activity (Sprague-Dawley rats): 30 to 45 min | Average reduction in the duration of stimulation-evoked after-discharge activity (human subjects; 8 patients): 85% | Average reduction in spiking frequency (human subjects; five patients, 20 mg intravenous bolus): approximately 60% | Mean interspike interval following furosemide treatment (human subjects; five patients, 9.6 s prior to furosemide): 21.9 s | Patients with complete blockade of after-discharge activity (human subjects; of 8 patients): 4 patients | Patients with reduction by more than 50% of duration and amplitude of after-discharge activity (human subjects; of 8 patients): 4 patients | Suppression of epileptiform activity (primate): suppresses epileptiform activity
